Experimental findings from patent US7067277B1, “Chimeric G proteins and uses thereof” (H. Lundbeck A/S, priority 1999, dated 2006) are described below.

For the assay, the target named is T1, Human NPFF1 (Homo sapiens, UniProt Q9GZQ6).
T1 construct: linearized plasmids or PCR products containing the complete coding region of the genes; expressed in transfected cells; host or cells: Xenopus laevis oocytes (receptor cRNA injected)
Description: Cl- current recording in Xenopus oocytes expressing GPCR and chimeric G protein. The format is cell-based. As to conditions: oocytes injected with 50 nl of 10 mM EGTA. The method, then:
Oocytes were harvested from Xenopus laevis and injected with mRNA transcripts as previously described (Quick and Lester, 1994; Smith et al., 1997). Receptor and chimeric G protein α subunit RNA transcripts were synthesized using the T7 polymerase (“Message Machine,” Ambion) from linearized plasmids or PCR products containing the complete coding region of the genes. Oocytes were injected with 5–25 ng synthetic receptor RNA and incubated for 3–8 days at 17 degrees. Three to eight hours prior to recording, oocytes were injected with 500 pg chimeric Gα subunit mRNA. Dual electrode voltage clamp (Axon Instruments Inc.) was performed using 3 M KCl-filled glass microelectrodes having resistances of 1–2 MOhm. Unless otherwise specified, oocytes were voltage clamped at a holding potential of −80 mV. During recordings, oocytes were bathed in continuously flowing (1–3 ml/min) medium containing 96 mM NaCl, 2 mM KCl, 1.8 mM CaCl2, 1 mM MgCl2, and 5 mM HEPES, pH 7.5 (ND96). Drugs were applied by local perfusion from a 10 μl glass capillary tube fixed at a distance of 0.5 mm from the oocyte. Experiments were carried out at room temperature. All values are expressed as mean±standard error of the mean.

T1 sequence (Q9GZQ6 whole entry): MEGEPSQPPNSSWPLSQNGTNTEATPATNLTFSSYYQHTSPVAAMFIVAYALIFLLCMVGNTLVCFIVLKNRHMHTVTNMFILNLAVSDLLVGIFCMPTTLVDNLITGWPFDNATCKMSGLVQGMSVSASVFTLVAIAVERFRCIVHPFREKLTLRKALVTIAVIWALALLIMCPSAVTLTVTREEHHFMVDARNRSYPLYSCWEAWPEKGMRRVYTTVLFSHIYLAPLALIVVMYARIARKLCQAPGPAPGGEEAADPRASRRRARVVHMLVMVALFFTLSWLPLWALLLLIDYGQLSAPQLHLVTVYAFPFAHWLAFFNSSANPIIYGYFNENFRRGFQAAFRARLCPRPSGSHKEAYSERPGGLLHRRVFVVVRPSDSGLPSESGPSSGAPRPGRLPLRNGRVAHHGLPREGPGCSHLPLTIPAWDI

As to `O=C(O)CN(CCOCCOCCN(CC(=O)O)CC(=O)O)CC(=O)O` [EGTA, reference compound], the “currents stimulated by NPFF in oocytes expressing NPFF1 and cGαq/z5” value is on record as “blocked”.
